The structures appear in SMILES notation.

In the experiment the target is EGFR (UniProt P00533).
EGFR, sequence (P00533 whole entry, looked up): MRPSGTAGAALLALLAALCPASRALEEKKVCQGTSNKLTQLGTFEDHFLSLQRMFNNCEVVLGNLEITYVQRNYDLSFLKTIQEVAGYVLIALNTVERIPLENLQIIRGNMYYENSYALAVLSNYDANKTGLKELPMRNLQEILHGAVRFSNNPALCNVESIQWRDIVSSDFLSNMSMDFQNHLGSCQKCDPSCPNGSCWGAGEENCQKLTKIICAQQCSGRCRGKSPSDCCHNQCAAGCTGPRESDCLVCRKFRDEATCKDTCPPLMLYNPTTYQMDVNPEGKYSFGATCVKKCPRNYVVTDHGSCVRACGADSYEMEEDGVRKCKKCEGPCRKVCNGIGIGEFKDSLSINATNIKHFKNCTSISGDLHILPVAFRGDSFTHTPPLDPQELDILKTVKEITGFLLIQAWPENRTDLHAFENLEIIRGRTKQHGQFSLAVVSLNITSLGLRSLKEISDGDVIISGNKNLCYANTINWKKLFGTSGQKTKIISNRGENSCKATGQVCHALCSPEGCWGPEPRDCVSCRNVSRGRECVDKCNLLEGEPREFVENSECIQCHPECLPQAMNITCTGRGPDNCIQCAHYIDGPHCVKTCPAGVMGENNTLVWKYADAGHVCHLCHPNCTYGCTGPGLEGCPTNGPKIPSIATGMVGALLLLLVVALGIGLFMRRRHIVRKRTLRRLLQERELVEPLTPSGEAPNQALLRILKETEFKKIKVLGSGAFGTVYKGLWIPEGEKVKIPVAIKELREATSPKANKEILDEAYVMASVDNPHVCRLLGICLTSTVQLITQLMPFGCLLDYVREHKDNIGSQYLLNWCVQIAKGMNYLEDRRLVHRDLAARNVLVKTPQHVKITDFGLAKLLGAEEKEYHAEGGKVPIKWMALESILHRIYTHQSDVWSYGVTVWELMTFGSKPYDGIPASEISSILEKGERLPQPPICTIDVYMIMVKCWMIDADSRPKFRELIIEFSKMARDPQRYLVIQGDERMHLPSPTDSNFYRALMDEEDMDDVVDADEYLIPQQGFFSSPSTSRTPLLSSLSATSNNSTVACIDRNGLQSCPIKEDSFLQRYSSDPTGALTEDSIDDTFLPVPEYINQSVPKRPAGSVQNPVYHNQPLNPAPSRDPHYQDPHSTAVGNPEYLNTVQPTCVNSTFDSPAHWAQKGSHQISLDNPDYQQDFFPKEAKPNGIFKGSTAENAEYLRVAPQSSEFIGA
As usually defined, the IC50 is the concentration needed to halve the response being measured. Low values mean inhibition by little substance, high ones a need for much substance. As for `CNC(=O)c1cccc(/C=C/c2cncnc2Nc2ccc3[nH]c(Cc4ccccc4)nc3c2)c1`, the IC50 is ≤ 10 µM.
Consider `CC(=O)Nc1cccc(C#Cc2cncnc2Nc2ccc(OCc3cccc(F)c3)c(Cl)c2)c1`, for which the IC50 was ≤ 10 µM.
For the molecule `COCCOCC(=O)Nc1cccc(C#Cc2cncnc2Nc2ccc(OCc3cccc(F)c3)c(Cl)c2)c1`, the IC50 was ≤ 10 µM.
In the case of `O=C(Nc1cccc(C#Cc2cncnc2Nc2ccc(OCc3cccc(F)c3)c(Cl)c2)n1)C(F)(F)Cl`, the IC50 is ≤ 10 µM.
As for `Cc1ccc(S(=O)(=O)n2ccc3ccc(C#Cc4cncnc4Nc4ccc(OCc5cccc(F)c5)c(Cl)c4)cc32)cc1`, the IC50 is ≤ 10 µM.
Regarding `Nc1cccc(C#Cc2cncnc2Nc2ccc(OCc3cccc(F)c3)c(Cl)c2)n1`, the IC50 is < 0.1 µM.
Then `COC(=O)CCC(=O)Nc1cccc(C#Cc2cncnc2Nc2ccc(OCc3cccc(F)c3)c(Cl)c2)n1`, with 0.1 to 1 µM; and `O=Cc1cccc(C#Cc2cncnc2Nc2ccc(OCc3cccc(F)c3)c(Cl)c2)c1`, with ≤ 10 µM.
On to `Fc1cccc(COc2ccc(Nc3ncncc3C#Cc3cccc(CNCCCn4ccnc4)n3)cc2Cl)c1`, for which the IC50 is < 0.1 µM.
With `Nc1ncc(/C=C/c2cncnc2Nc2ccc(OCc3cccc(F)c3)c(Cl)c2)cn1` the figure was ≤ 10 µM; with `CC(=O)Nc1cccc(C#Cc2cncnc2Nc2ccc(OCc3cccc(F)c3)c(Cl)c2)n1`, ≤ 10 µM; with `CS(=O)(=O)CCNCc1cccc(C#Cc2cncnc2Nc2ccc(OCc3cccc(F)c3)c(Cl)c2)c1`, ≤ 10 µM.
For the molecule `COCc1cccc(C#Cc2cncnc2Nc2ccc(OCc3cccc(F)c3)c(Cl)c2)n1`, the IC50 is > 1 µM.
On to `CS(=O)(=O)CCNc1cccc(C#Cc2cncnc2Nc2ccc(OCc3cccc(F)c3)c(Cl)c2)n1`, for which the half-inhibitory concentration (IC50) is > 1 µM.
Turning to `Fc1cccc(COc2ccc(Nc3ncncc3C#Cc3cccc(CN4CCNCC4)n3)cc2Cl)c1`, the 50% inhibitory concentration (IC50) is ≤ 10 µM.
For `O=C(NCCN1CCOCC1)NCc1cccc(C#Cc2cncnc2Nc2ccc(OCc3cccc(F)c3)c(Cl)c2)n1`, the 50% inhibitory concentration (IC50) was < 0.1 µM.
As to `OCc1nc(C#Cc2cncnc2Nc2ccc(OCc3cccc(F)c3)c(Cl)c2)cs1`, the IC50 is ≤ 10 µM.
`Fc1cccc(COc2ccc(Nc3ncncc3C#Cc3ccc4c(c3)CNCC4)cc2Cl)c1`: the IC50 was ≤ 10 µM.
Take `Nc1ccc(C#Cc2cncnc2Nc2ccc(OCc3cccc(F)c3)c(Cl)c2)cc1`: the IC50 is ≤ 10 µM.
With `C(=C\c1cncnc1Nc1ccc(Oc2ccccc2)cc1)/c1ccccc1`, the IC50 was ≤ 10 µM.
Turning to `NCc1cccc(C#Cc2cncnc2Nc2ccc(OCc3cccc(F)c3)c(Cl)c2)n1`, the IC50 was ≤ 10 µM.
Consider `N#CCCNCc1ccc(C#Cc2cncnc2Nc2ccc(OCc3cccc(F)c3)c(Cl)c2)o1`, for which the 50% inhibitory concentration (IC50) was ≤ 10 µM.
On to `Fc1cccc(C#Cc2cncnc2Nc2ccc(OCc3cccc(F)c3)c(Cl)c2)c1`, for which the IC50 is ≤ 10 µM.
With `C(=C\c1cncnc1Nc1ccc2[nH]c(Cc3ccccc3)nc2c1)/c1ccsc1` the figure was ≤ 10 µM.
Then `CC(=S)Nc1cccc(C#Cc2cncnc2Nc2ccc(OCc3cccc(F)c3)c(Cl)c2)c1`, with ≤ 10 µM; and `NCCC(=O)Nc1cccc(C#Cc2cncnc2Nc2ccc(OCc3cccc(F)c3)c(Cl)c2)c1`, with ≤ 10 µM; and `Fc1cccc(COc2ccc(Nc3ncncc3/C=C/c3cccnc3)cc2Cl)c1`, with ≤ 10 µM.
Consider `CC(=O)Nc1cccc(C#Cc2cncnc2Nc2ccc3[nH]c(Cc4ccccc4)nc3c2)c1`, for which the IC50 was ≤ 10 µM.
With `O=Cc1ccc(C#Cc2cncnc2Nc2ccc(OCc3cccc(F)c3)c(Cl)c2)o1` the figure was ≤ 10 µM; with `Fc1cccc(COc2ccc(Nc3ncncc3C#Cc3cccc(CN4CCCC4)n3)cc2Cl)c1`, ≤ 10 µM.
As to `N#CCCNC(=O)NCc1cccc(C#Cc2cncnc2Nc2ccc(OCc3cccc(F)c3)c(Cl)c2)n1`, the IC50 was ≤ 10 µM.
On to `Fc1cccc(COc2ccc(Nc3ncncc3C#Cc3cccs3)cc2Cl)c1`, for which the 50% inhibitory concentration (IC50) was ≤ 10 µM.
As for `Fc1cccc(COc2ccc(Nc3ncncc3/C=C/c3cccs3)cc2Cl)c1`, the IC50 was ≤ 10 µM.
As for `CC(=O)NCc1cccc(C#Cc2cncnc2Nc2ccc(OCc3cccc(F)c3)c(Cl)c2)c1`, the IC50 was ≤ 10 µM.
Then `CC(C)(C)OC(=O)NCc1cccc(C#Cc2cncnc2Nc2ccc(OCc3cccc(F)c3)c(Cl)c2)c1`, with ≤ 10 µM; and `COCCNC(=O)NCc1cccc(C#Cc2cncnc2Nc2ccc(OCc3cccc(F)c3)c(Cl)c2)n1`, with ≤ 10 µM.
As for `CN(CCO)Cc1cccc(C#Cc2cncnc2Nc2ccc(OCc3cccc(F)c3)c(Cl)c2)n1`, the IC50 was ≤ 10 µM.
Turning to `COc1cccc(C#Cc2cncnc2Nc2ccc(OCc3cccc(F)c3)c(Cl)c2)n1`, the IC50 is ≤ 10 µM.
In the case of `Fc1cccc(COc2ccc(Nc3ncncc3C#Cc3cn[nH]c3)cc2Cl)c1`, the IC50 is ≤ 10 µM.
Turning to `N#Cc1ccccc1C#Cc1cncnc1Nc1ccc(OCc2cccc(F)c2)c(Cl)c1`, the IC50 was ≤ 10 µM.
Take `Nc1ncc(/C=C/c2cncnc2Nc2ccc3c(cnn3Cc3ccccc3)c2)cn1`: the IC50 was ≤ 10 µM.
Then `Fc1cccc(COc2ccc(Nc3ncncc3C#Cc3cccc(CN4CCOCC4)n3)cc2Cl)c1`, with ≤ 10 µM.
Then `Fc1cccc(COc2ccc(Nc3ncncc3/C=C/c3ccsc3)cc2Cl)c1`, with < 0.1 µM; and `N#Cc1ccc(C#Cc2cncnc2Nc2ccc(OCc3ccc(F)cc3)c(Cl)c2)nc1N`, with ≤ 10 µM.
Then `Fc1cccc(COc2ccc(Nc3ncncc3/C=C/c3ccncc3)cc2Cl)c1`, with < 0.1 µM.
`CC(=O)Nc1cccc(C#Cc2cncnc2Nc2ccc(Cc3ccccc3)cc2)c1`: the concentration for half-maximal inhibition (IC50) is ≤ 10 µM.
Then `C(#Cc1cncnc1Nc1ccc2c(ccn2Cc2ccccc2)c1)c1ccccc1`, with ≤ 10 µM; and `CC(=O)NCCNCc1cccc(C#Cc2cncnc2Nc2ccc(OCc3cccc(F)c3)c(Cl)c2)n1`, with ≤ 10 µM.
In the case of `Oc1cccnc1/C=C/c1cncnc1Nc1ccc(OCc2cccc(F)c2)c(Cl)c1`, the IC50 was ≤ 10 µM.
In the case of `Fc1cccc(COc2ccc(Nc3ncncc3C#Cc3ccnc(N4CCOCC4)n3)cc2Cl)c1`, the IC50 is ≤ 10 µM.
For the molecule `O=C(Nc1cccc(C#Cc2cncnc2Nc2ccc(OCc3cccc(F)c3)c(Cl)c2)n1)C(F)(F)F`, the IC50 is < 0.1 µM.
On to `Fc1cccc(COc2ccc(Nc3ncncc3/C=C/c3ccccc3)cc2Cl)c1`, for which the IC50 was < 0.1 µM.
With `N#CCCNCc1cccc(C#Cc2cncnc2Nc2ccc(OCc3cccc(F)c3)c(Cl)c2)n1`, the IC50 was ≤ 10 µM.
With `Fc1cccc(COc2ccc(Nc3ncncc3C#Cc3cccnc3)cc2Cl)c1`, the IC50 is ≤ 10 µM.
Turning to `CS(=O)(=O)CC(=O)Nc1cccc(C#Cc2cncnc2Nc2ccc(OCc3cccc(F)c3)c(Cl)c2)c1`, the IC50 was ≤ 10 µM.
In the case of `C(=C\c1cncnc1Nc1ccc2[nH]c(Cc3ccccc3)nc2c1)/c1ccccc1`, the half-maximal inhibitory concentration (IC50) was ≤ 10 µM.
On to `Cn1cncc1C#Cc1cncnc1Nc1ccc(OCc2cccc(F)c2)c(Cl)c1`, for which the IC50 was ≤ 10 µM.
With `CN(C)CCCC(=O)Nc1cccc(C#Cc2cncnc2Nc2ccc(OCc3cccc(F)c3)c(Cl)c2)n1`, the IC50 is < 0.1 µM.
Regarding `Nc1cccc(C#Cc2cncnc2Nc2ccc(OCc3cccc(F)c3)c(Cl)c2)c1`, the IC50 is ≤ 10 µM.
Then `CN1CCN(Cc2cccc(C#Cc3cncnc3Nc3ccc(OCc4cccc(F)c4)c(Cl)c3)n2)CC1`, with ≤ 10 µM; and `C(=C\c1cncnc1Nc1ccc2c(cnn2Cc2ccccc2)c1)/c1cn[nH]c1`, with 0.1 to 1 µM.

The values are drawn from the Kinase Knowledgebase extract (Sharma et al. 2016).
